Series [1] deals with RPTEC/TERT1 artificial tubular barrier. The following applies: human.
Method: (§1) Experiments were performed using an immortalized human renal proximal tubular epithelial cell line (RPTEC/TERT1) [21], which was supplied by Evercyte GmbH (Vienna, Austria). […] To bring these cells into culture 0.6 × 10^5 cells were seeded onto 24-well plates Thincert Transwell inserts (0.33 cm^2, 0.4 µm pore size; Greiner Bio-one) and further cultured in ProxUp Basal Medium (Evercyte, Austria). The cells were cultured on Thincert inserts (Greiner Bio-one, Frickenhausen, Germany) for at least 8 days to ensure the formation of a confluent cell monolayer. The cell layer integrity was confirmed by measuring the trans-epithelial electrical resistance (TEER) with an epithelial volt-ohm-meter (EVOM, Millicel, Darmstadt, Germany). Transwell inserts were used for transport experiments when TEER values exceeded 150 Ω × cm^2.
(§2) The transport of R123 and HSA-647 across the tubular barrier was carried out under static and dynamic cultivation conditions. The static conditions were carried out by placing the Transwell^TM inserts on a well plate, with no pressure or flow applied.
(§3) Fluorescence intensity at the beginning and end of the experiments was measured using a microplate reader (Tecan Infinite Pro, Tecan Group, Switzerland), and a miniaturized fluorescence reader (Fluo Sens Integrated, Qiagen, Hilden, Germany) was used for online monitoring. […] Using the calibration curves, the fluorescent intensity (FU) results were converted to concentration (µM).
(§4) During the transport assays, the decrease in the fluorescence intensity in the artificial microfluidic channels mimicking the peritubular capillary structures (in the well, see Figure 2; compartment 7) was measured constantly. R123 (2 μM) and HSA-647 (0.6 µM) were added to the cell culture medium and to the microfluidic channel (Figure 2), and a Transwell insert populated with cells (compartment 4 in Figure 2).
(§5) The whole system was then placed on the Qiagen fluorescence meter in such a way that only the fluorescence signal of the cell culture medium in the channels (compartment 1 in Figure 2) was measured every 120 s for maximum 48 h. Cell-free Transwell^TM inserts were used as a control. Transport assay experiments for each condition were performed and measured in triplicates.
Series [2] concerns MDR1. The following applies: cited from earlier work.
Another series relates to OAT1. The arrangement: method as in PMID 23140242, PMID 22470447. The following applies: OAT1-mediated transport, Michaelis–Menten model; cited from earlier work.
The target of series [3] is MDR1 (Homo sapiens, UniProt P08183). Briefly: Kinetic characterization (Hill fit) of MDR1-mediated R123 transport above the artificial tubular barrier.
From the text: (3) V=Vmax[S]^n/Km^n+[S]^n
(§6) In this equation, V is the substrate transport velocity in static conditions, [S] is the substrate (R123) concentration, Vmax is the maximum velocity of R123 transport, Km is Michaelis–Menten constant, and n is the Hill slope or degree, which usually explains the cooperative behavior in substance transport. It should be noted that, in this definition, Km = [S] when V = 0.5 Vmax.
(§7) It is assumed that when the inhibitor is present, any R123 molecule that passed through the membrane passed by means of passive transport [29]. […] (R123 concentration) curve was plotted (Figure 8) using online monitoring results, providing the R123 concentration.
Series [4] deals with RPTEC/TERT1 artificial tubular barrier. Briefly: Transport assay of R123 and HSA-647 across the artificial tubular barrier on Transwell inserts, static and in the microphysiological system (pressure, flow). The following applies: for Concentration of R123 in the peritubular capillary after 48 h: start 2 µM.
Method: as §1, §2, §3, §4, §5
Series [5] has as its system COC(=O)c1ccccc1-c1c2ccc(=N)cc-2oc2cc(N)ccc12.
From the text: (3) V=Vmax[S]^n/Km^n+[S]^n
as §6, §7
The test system of series [6] is MDR1. Briefly: Quantitative measurement of MDR1 expression by sandwich ELISA. The following applies: RPTECs, tariquidar 50 µg/mL, static and dynamic conditions. The class given is cell-based, human. The method, then: To measure the amount of MDR1 expressed in different conditions, a sandwich enzyme-linked immunosorbent assay (ELISA) kit for MDR1 (antibodies-online, Aachen, Germany) was used. After each experiment, lysed cells were centrifuged at 5000× g for 5 min (at 4 °C); then, the supernatant was collected for ELISA [27]. For each experimental condition, three samples were prepared, with each sample measured in duplicates.
The amount of MDR1 expressed in the cell-based artificial proximal tubule was measured by the ELISA quantitative measurement.
To confirm, we performed the Student’s t-test; there is no significant difference in the mean values of MDR1 concentration in different conditions.

In series [7] the test system is MDR1. The arrangement: method as in PMID 28487651. The following applies: tariquidar in interaction with MDR1; read-out: KI (inhibition constant); cited from earlier work.
Setting [8] is: absence of inhibitor, static, from the literature.

Values joined by “and” are separate entries in the source; they are usually repeats but may differ in a detail not shown here. Identical values can stand only once. Like-named read-outs stand apart in the source and are kept apart here.

Chain of MDR1 (Homo sapiens, UniProt P08183) (P08183 whole entry): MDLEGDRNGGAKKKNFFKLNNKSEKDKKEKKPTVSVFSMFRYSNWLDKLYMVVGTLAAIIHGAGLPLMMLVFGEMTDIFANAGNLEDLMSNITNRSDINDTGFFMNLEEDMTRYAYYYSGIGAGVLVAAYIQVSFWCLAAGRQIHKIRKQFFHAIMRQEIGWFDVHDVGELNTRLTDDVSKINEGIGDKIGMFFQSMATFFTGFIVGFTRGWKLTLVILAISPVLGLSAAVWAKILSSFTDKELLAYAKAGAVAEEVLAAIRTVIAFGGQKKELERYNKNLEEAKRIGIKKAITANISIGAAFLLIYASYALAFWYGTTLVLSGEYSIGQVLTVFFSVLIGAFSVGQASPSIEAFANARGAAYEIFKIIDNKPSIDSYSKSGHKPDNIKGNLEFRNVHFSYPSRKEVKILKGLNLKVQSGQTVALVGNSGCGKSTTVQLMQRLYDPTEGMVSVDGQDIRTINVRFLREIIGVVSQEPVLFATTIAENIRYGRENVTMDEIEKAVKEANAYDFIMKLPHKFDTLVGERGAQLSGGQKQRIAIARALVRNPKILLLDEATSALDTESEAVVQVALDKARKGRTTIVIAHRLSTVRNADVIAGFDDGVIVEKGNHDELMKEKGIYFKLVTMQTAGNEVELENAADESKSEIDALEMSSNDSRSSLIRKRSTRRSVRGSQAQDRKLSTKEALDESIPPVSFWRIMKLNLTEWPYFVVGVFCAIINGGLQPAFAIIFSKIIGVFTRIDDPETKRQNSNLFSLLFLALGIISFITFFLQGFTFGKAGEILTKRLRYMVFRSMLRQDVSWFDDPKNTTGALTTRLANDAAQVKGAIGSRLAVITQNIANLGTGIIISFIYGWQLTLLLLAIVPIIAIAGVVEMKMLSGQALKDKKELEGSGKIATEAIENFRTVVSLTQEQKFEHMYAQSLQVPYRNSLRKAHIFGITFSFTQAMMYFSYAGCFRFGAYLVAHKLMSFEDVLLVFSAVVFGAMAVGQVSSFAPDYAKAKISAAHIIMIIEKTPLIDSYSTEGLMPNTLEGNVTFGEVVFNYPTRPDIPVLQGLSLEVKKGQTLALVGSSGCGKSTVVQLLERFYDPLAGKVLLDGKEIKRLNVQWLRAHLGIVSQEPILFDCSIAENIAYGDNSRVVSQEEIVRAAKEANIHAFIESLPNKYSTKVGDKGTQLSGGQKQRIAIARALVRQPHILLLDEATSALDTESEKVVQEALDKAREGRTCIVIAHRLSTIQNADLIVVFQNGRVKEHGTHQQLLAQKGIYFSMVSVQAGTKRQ

Turning to `COC(=O)c1ccccc1-c1c2ccc(=N)cc-2oc2cc(N)ccc12` [R123, Rhodamine 123], the “Passive transport of R123, JR123,F,PT, calculated from equation” value in series [1] is recorded as 0.026 pmol/min. Moreover, in series [1], the “Passive transport of R123, JR123,P,PT, calculated from equation” value was 0.0102 pmol/min. For the same compound, the “Passive permeability P” value in series [1] (2 µM) came out at 1.5e-08 L/min. Also, the “Rdiffflow (effect of flow on total transport compared to static)” value in series [1] (2 µM) worked out at 0.0434 pmol/min. For the same compound, the “Rdiffpressure (effect of pressure on total transport compared to static)” value in series [1] (2 µM) was determined as 0.0009 pmol/min. Also, the “Total transport rate of R123, JR123flow” value in series [1] (2 µM) is reported as 0.112 pmol/min. For the same compound, the “Total transport rate of R123, JR123pressure” value in series [1] (2 µM) stood at 0.069 pmol/min. For the same compound, the “Total transport rate of R123, JR123static” value in series [1] (2 µM) worked out at 0.068 pmol/min. The “Sieving coefficient θ” value in series [1] (48 h, 2 µM) was 0.22. In addition, the Km (as a rule, the substrate concentration at which the rate is half of its maximum) is 17.5 ± 2.8 µM in the series on MDR1 [2] (MDR1-mediated transport, Michaelis–Menten model); approximately 17.5 µM with MDR1 [2] (setting [8]); approximately 17.5 µM in the series with MDR1 [2] (presence of inhibitor (non-competitive, Km unchanged), static, from the literature); 0.3 ± 0.1 µM in the series on OAT1. For the same compound, the Vmax (commonly the top rate of the reaction or transport when substrate is in excess) with MDR1 [2] (setting [8]) was 0.0525 pmol/min and 0.0525 [22] pmol/min. Moreover, the “n (Hill slope)” value with MDR1 [2] (presence of inhibitor, static, from the literature) was 2 [22, 28]; on MDR1 [3] (absence of inhibitor, static, present study), 2; on MDR1 [3] (presence of tariquidar, static, present study) it was 2. For the same compound, at MDR1 [3] (0.13 µL/s flow, total minus passive transport rate), the “Active transport rate of R123, JR123AT,flow” value worked out at 0.048 pmol/min. In addition, at MDR1 [3] (5 mbar pressure, total minus passive transport rate), the “Active transport rate of R123, JR123AT,pressure” value was 0.042 pmol/min. Further, the “V'max” value at MDR1 [3] (presence of tariquidar, static, calculated from Vmax/(1+[I]/KI) with literature KI = 0.32 nM (ref 32)) is 2.18 × 10^−7 pmol/min and 2.18 × 10^−7 (from Equation (3)) [32] pmol/min; at MDR1 [3] (presence of tariquidar, static, from curve fitting, present study), 1.25 × 10^−7 ± 3 × 10^−9 pmol/min and 1.25 × 10^−7 ± 3 × 10^−9 (from curve fitting) pmol/min. At MDR1 [3] (static, total minus passive transport rate), the “Active transport rate of R123, JR123AT,static” value turned out to be 0.038 pmol/min. Also, the “Concentration of R123 in the peritubular capillary after 48 h” value in series [4] (0.13 µL/s flow, no tariquidar) stood at 600 nM; in series [4] (5 mbar pressure, no tariquidar), 1100 nM; in series [4] (static, no tariquidar), 1500 nM; in series [4] (static, tariquidar present), 1700 nM. Also, the “AVG R123 conc. In well, fluorescence endpoint after 48 hours” value is 0.92 µM in series [4] (flow); 0.25 µM in series [4] (flow inhibited); 0.68 µM in series [4] (pressure); 0.24 µM in series [4] (pressure inhibited); 0.22 µM in series [4] (static inhibited).

Regarding MDR1 (Homo sapiens), in series [5], the Km is 17.47 ± 8 µM.

With `COc1cc2c(cc1OC)CN(CCc1ccc(NC(=O)c3cc(OC)c(OC)cc3NC(=O)c3cnc4ccccc4c3)cc1)CC2` [tariquidar], the “Effect on the level of MDR1 protein (ELISA)” value in the series with MDR1 [6] is given as “did not affect the level of MDR1 protein”. In the series with MDR1 [7], the Ki (commonly the dissociation constant of the complex between target and ligand, obtained from inhibition or displacement) is 0.32 nM.

Source of the values: paper PMC10376999 (Biomedicines, 2023).
